Measured values as given in patent US20250353891A1 (MEDIMMUNE LIMITED, priority 2022, published 2025).
Like-named read-outs stand apart in the source and are kept apart here. Starred links: 1 amine or outer side, 2 acyl side, 3 side chain; linkers in the order of their positions; H or OH if unused. Non-standard residues stand in square brackets, D forms with d. Residues, ends and D or L forms follow the SMILES beside them. Groups on a side chain read outwards from the residue. *: point of attachment. C20 diacid = O=C(O)CCCCCCCCCCCCCCCCCCC(=O)*; C18 diacid = O=C(O)CCCCCCCCCCCCCCCCC(=O)*; Dip = N[C@H](C(=O)O)C(c1ccccc1)c1ccccc1; γGlu = O=C(O)[C@H](CCC(=O)[*:2])N[*:1]; Stearoyl = CCCCCCCCCCCCCCCCCC(=O)*; αMeF = C[C@](N)(Cc1ccccc1)C(=O)O; Myristoyl = CCCCCCCCCCCCCC(=O)*; Nle = CCCC[C@H](N)C(=O)O; PEG2 = NCCOCCOCCC(=O)O; AEEA = NCCOCCOCC(=O)O; Aib = CC(C)(N)C(=O)O

Key:
[1] = Mouse acute food intake study; assay type: in vivo; settings: male C57Bl/6 mice, s.c., cumulative food intake at 24 hr vs vehicle
Summary of the method: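 Peptide or vehicle went subcutaneously (5 mL/kg) to 6-8 h-fasted male C57Bl/6 mice shortly before the dark phase, with groups balanced on body weight and 24-hour intake. Cumulative food consumption was derived from 48 h of automated BioDaq monitoring with free food and water access.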

[2] = system: GLP-1R knockout (KO) mice; assay: Glucose change in GLP-1R knockout mice; assay type: in vivo, mouse; settings: GLP-1R KO mice, s.c., 120 min vs 0 min
Procedure: (§1) They acclimated for a minimum of ˜1-2 weeks, and mice were sorted into groups (n=4-8/group) based on body weight. On day of study, mice were fasted briefly for 2 hrs prior to study start. In some studies, mice were pre-treated with octreotide (BaChem, 10 mg/kg) at 30 minutes prior to peptide injection. Glucose was measured via glucometer at various timepoints including-30 min (prior to octreotide when used in studies), 0 min (before peptide dose), 30, 60, 120, 180, 240, and 360 minutes. Since these studies are acute in nature, mice were re-used for multiple studies (no more than 3) and always allowed at least a minimum wash-out period of 1 week.

wildtype (WT) mice = assay: Glucose change in wildtype mice; assay type: in vivo, mouse; settings: s.c., 120 min vs 0 min
Procedure: as §1, with “GLP-1R knockout (KO) and wildtype (WT) mice at 8-14 weeks of age were singly housed on standard chow diet (Envigo, 2918) and automatic water. They” for “They”

[3] = target: human GLP-1 receptor (hGLP-1R) (Homo sapiens, UniProt P43220); assay: cAMP production (HTRF) in CHO cells expressing hGLP-1R; assay type: cell-based; parameters: expressed in transfected cells; settings: for EC50: cAMP in CHO hGLP-1R cells, geometric mean, read-out: hGLP-1R EC50; for % Relative Potency Ratio: % GLP-1R activity relative to GLP-1 / % GlucR activity relative to glucagon
Summary of the method: (§2)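 Cells were resuspended in assay buffer at batch-optimized density, typically 1×10^5 cells/mL for hGLP-1R and 2×10^5 cells/mL for hGCGR. After 30 min incubation at room temperature with compound, cAMP was measured by two-step HTRF. EC50 values came from 4-parameter logistic fits of % Delta F.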

[4] = target: human glucagon receptor (hGCGR) (Homo sapiens, UniProt P47871); assay: cAMP production (HTRF) in CHO cells expressing hGCGR; assay type: cell-based; parameters: expressed in transfected cells; settings: cAMP in CHO hGCGR cells, geometric mean, read-out: hGluc-R EC50
Summary of the method: as §2

[5] = 10 nmol/kg, somatostatin pretreatment (octreotide) 30 min prior to cpd
[6] = 30 nmol/kg, somatostatin pretreatment (octreotide) 30 min prior to cpd
[7] = Table 6, peptides modified at position 17
[8] = 3 nmol/kg, no somatostatin pretreatment
[9] = Table 7, peptides modified at position 20
[10] = 10 nmol/kg, no somatostatin pretreatment
[11] = 30 nmol/kg, no somatostatin pretreatment

Sequence of human GLP-1 receptor (hGLP-1R) (P43220 24-463): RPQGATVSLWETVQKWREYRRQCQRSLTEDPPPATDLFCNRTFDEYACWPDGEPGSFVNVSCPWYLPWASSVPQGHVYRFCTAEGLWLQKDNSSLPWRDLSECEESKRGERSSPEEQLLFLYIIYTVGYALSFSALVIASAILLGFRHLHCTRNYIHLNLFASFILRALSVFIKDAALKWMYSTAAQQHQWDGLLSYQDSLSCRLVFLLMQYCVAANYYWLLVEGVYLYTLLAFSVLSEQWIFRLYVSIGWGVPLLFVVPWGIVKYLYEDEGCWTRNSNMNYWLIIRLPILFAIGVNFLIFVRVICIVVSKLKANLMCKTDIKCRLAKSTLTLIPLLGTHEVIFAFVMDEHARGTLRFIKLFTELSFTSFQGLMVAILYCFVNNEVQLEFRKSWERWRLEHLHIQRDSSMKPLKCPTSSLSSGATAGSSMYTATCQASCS
Sequence of human glucagon receptor (hGCGR) (P47871 26-477): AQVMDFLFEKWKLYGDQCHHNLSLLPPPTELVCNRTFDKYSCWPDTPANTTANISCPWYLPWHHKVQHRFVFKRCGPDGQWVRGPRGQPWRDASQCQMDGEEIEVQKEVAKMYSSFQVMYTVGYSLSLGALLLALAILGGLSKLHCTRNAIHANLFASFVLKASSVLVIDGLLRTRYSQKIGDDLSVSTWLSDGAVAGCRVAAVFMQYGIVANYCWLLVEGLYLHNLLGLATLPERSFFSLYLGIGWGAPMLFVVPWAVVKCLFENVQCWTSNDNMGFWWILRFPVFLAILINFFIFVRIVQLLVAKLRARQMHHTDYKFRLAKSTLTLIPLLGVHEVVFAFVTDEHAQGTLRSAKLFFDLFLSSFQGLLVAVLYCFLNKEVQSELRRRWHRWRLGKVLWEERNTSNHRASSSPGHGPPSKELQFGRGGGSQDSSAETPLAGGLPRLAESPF

EC50 [3, 7] | % Relative Potency Ratio ([3]; Table 6) | EC50 [4, 7] | EC50 [3, 9] | % Relative Potency Ratio ([3]; Table 7) | EC50 [4, 9] | SMILES | 24 hr % Vehicle Food Intake ([1]; dose 10 nmol/kg) | GLP-1R KO % glucose change 120 min [2, 5] | GLP-1R KO % glucose change 120 min [2, 6] | WT % glucose change 120 min (wildtype (WT) mice; [5]) | WT % glucose change 120 min (wildtype (WT) mice; [6]) | GLP-1R KO % glucose change 120 min [2, 8] | WT % glucose change 120 min (wildtype (WT) mice; [8]) | 24 hr % Vehicle Food Intake ([1]; dose 3 nmol/kg) | GLP-1R KO % glucose change 120 min [2, 10] | GLP-1R KO % glucose change 120 min [2, 11] | WT % glucose change 120 min (wildtype (WT) mice; [10]) | WT % glucose change 120 min (wildtype (WT) mice; [11])
0.00314 nM | 1.6 | 0.00249 nM |  |  |  | CCCCCCCCCCCCCC(=O)N[C@@H](CCC(=O)N[C@@H](CCC(=O)NCCOCCOCCC(=O)NCCOCCOCCC(=O)NCCCC[C@H](NC(=O)[C@H](CO)NC(=O)[C@H](CC(=O)O)NC(=O)[C@H](CC(C)C)NC(=O)[C@@H](NC(=O)[C@H](CCCCN)NC(=O)[C@H](CO)NC(=O)[C@@H](NC(=O)[C@H](CC(=O)O)NC(=O)[C@H](CO)NC(=O)[C@@H](NC(=O)[C@](C)(Cc1ccccc1)NC(=O)[C@H](CO)NC(=O)CNC(=O)[C@H](CCC(N)=O)NC(=O)[C@H](CO)NC(=O)[C@@H](N)Cc1c[nH]cn1)[C@@H](C)O)C(C)C)C(c1ccccc1)c1ccccc1)C(=O)N[C@@H](C)C(=O)N[C@@H](C)C(=O)N[C@@H](CCC(N)=O)C(=O)N[C@@H](CC(=O)O)C(=O)N[C@@](C)(Cc1ccccc1)C(=O)N[C@H](C(=O)N[C@@H](CCC(=O)O)C(=O)NC(C)(C)C(=O)N[C@H](C(=O)N[C@H](C(=O)N[C@@H](CC(N)=O)C(=O)N[C@H](C(N)=O)[C@@H](C)O)[C@@H](C)CC)[C@@H](C)CC)C(C)C)C(=O)O)C(=O)O [Peptide 63] (H-HSQGS[αMeF]TSDVSK[Dip]LDSK([PEG2-PEG2-γGlu-γGlu-Myristoyl])AAQD[αMeF]VE[Aib]IINT-NH2; N-terminus assumed) | 37.9% | 68.2% | 113.0% | −26.4% | −23.8% |  |  |  |  |  |  | 
 | 11.1 |  |  |  |  | CCCCCCCCCCCCCCCCCC(=O)N[C@@H](CCC(=O)N[C@@H](CCC(=O)NCCOCCOCCC(=O)NCCOCCOCCC(=O)NCCCC[C@H](NC(=O)[C@H](CO)NC(=O)[C@H](CC(=O)O)NC(=O)[C@H](CC(C)C)NC(=O)[C@](C)(Cc1ccccc1)NC(=O)[C@H](CCCCN)NC(=O)[C@H](CO)NC(=O)[C@@H](NC(=O)[C@H](CC(=O)O)NC(=O)[C@H](CO)NC(=O)[C@@H](NC(=O)[C@H](Cc1ccccc1)NC(=O)[C@@H](NC(=O)CNC(=O)[C@H](CCC(N)=O)NC(=O)C(C)(C)NC(=O)[C@@H](N)Cc1c[nH]cn1)[C@@H](C)O)[C@@H](C)O)C(C)C)C(=O)N[C@@H](CCCNC(=N)N)C(=O)N[C@@H](C)C(=O)N[C@@H](CCC(N)=O)C(=O)N[C@@H](CC(=O)O)C(=O)N[C@@](C)(Cc1ccccc1)C(=O)N[C@H](C(=O)N[C@@H](CCC(N)=O)C(=O)NC(C)(C)C(=O)N[C@@H](CC(C)C)C(=O)N[C@@H](CCCC)C(=O)N[C@@H](CCC(=O)O)C(=O)N[C@H](C(N)=O)[C@@H](C)O)C(C)C)C(=O)O)C(=O)O [Peptide 69] (H-H[Aib]QGTFTSDVSK[αMeF]LDSK([PEG2-PEG2-γGlu-γGlu-Stearoyl])RAQD[αMeF]VQ[Aib]L[Nle]ET-NH2; N-terminus assumed) | 74.3% |  |  |  |  | 17.6% | −27.2% |  |  |  |  | 
 |  |  | 0.0775 nM | 0.9 | 0.0341 nM | CC[C@H](C)[C@H](NC(=O)[C@H](Cc1c[nH]c2ccccc12)NC(=O)[C@H](CCC(N)=O)NC(=O)[C@@H](NC(=O)[C@H](Cc1ccccc1)NC(=O)[C@H](CC(=O)O)NC(=O)[C@H](CCCCNC(=O)COCCOCCNC(=O)COCCOCCNC(=O)CC[C@H](NC(=O)CCCCCCCCCCCCCCCCC(=O)O)C(=O)O)NC(=O)[C@H](C)NC(=O)[C@H](C)NC(=O)[C@H](CCC(N)=O)NC(=O)[C@H](CO)NC(=O)[C@H](CC(=O)O)NC(=O)[C@H](CC(C)C)NC(=O)[C@](C)(Cc1ccccc1)NC(=O)[C@H](CCCCN)NC(=O)[C@H](CO)NC(=O)[C@@H](NC(=O)[C@H](CC(=O)O)NC(=O)[C@H](CO)NC(=O)[C@@H](NC(=O)[C@](C)(Cc1ccccc1)NC(=O)[C@H](CO)NC(=O)CNC(=O)[C@H](Cc1c[nH]cn1)NC(=O)C(C)(C)NC(=O)[C@@H](N)Cc1c[nH]cn1)[C@@H](C)O)C(C)C)C(C)C)C(=O)N[C@@H](C)C(=O)N[C@@H](CC(N)=O)C(=O)N[C@H](C(N)=O)[C@@H](C)O [Peptide 203] (H-H[Aib]HGS[αMeF]TSDVSK[αMeF]LDSQAAK([AEEA-AEEA-γGlu-C18 diacid])DFVQWIANT-NH2; N-terminus assumed) | 81.4% | 54.6% | 106.9% | −29.5% | −36.5% |  |  |  |  |  |  | 
 |  |  | 0.118 nM | 2.5 | 0.148 nM | CC[C@H](C)[C@H](NC(=O)[C@H](Cc1c[nH]c2ccccc12)NC(=O)[C@H](CCC(N)=O)NC(=O)[C@@H](NC(=O)[C@H](Cc1ccccc1)NC(=O)[C@H](CC(=O)O)NC(=O)[C@H](CCCCNC(=O)COCCOCCNC(=O)COCCOCCNC(=O)CC[C@H](NC(=O)CC[C@H](NC(=O)CCCCCCCCCCCCCCCCCCC(=O)O)C(=O)O)C(=O)O)NC(=O)[C@H](C)NC(=O)[C@H](C)NC(=O)[C@H](CCCNC(=N)N)NC(=O)[C@H](CO)NC(=O)[C@H](CC(=O)O)NC(=O)[C@H](CC(C)C)NC(=O)[C@H](Cc1ccc(O)cc1)NC(=O)[C@H](CCCCN)NC(=O)[C@H](CO)NC(=O)[C@@H](NC(=O)[C@H](CC(=O)O)NC(=O)[C@H](CO)NC(=O)[C@@H](NC(=O)[C@](C)(Cc1ccccc1)NC(=O)[C@H](CO)NC(=O)CNC(=O)[C@H](Cc1c[nH]cn1)NC(=O)C(C)(C)NC(=O)[C@@H](N)Cc1c[nH]cn1)[C@@H](C)O)C(C)C)C(C)C)C(=O)N[C@@H](C)C(=O)N[C@@H](CC(N)=O)C(=O)N[C@H](C(N)=O)[C@@H](C)O [Peptide 289] (H-H[Aib]HGS[αMeF]TSDVSKYLDSRAAK([AEEA-AEEA-γGlu-γGlu-C20 diacid])DFVQWIANT-NH2) | 49.6% |  |  |  |  |  |  | 76.1% | 8.9% | 7.7% | −8.5% | −16.1%
